According to ChEMBL document CHEMBL1201862, “PubChem BioAssay data set” (2004):
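Interpolation was linear, between the two tested concentrations surrounding the appropriate level; five concentrations were tested over 48 hours in 96-well plates. Abbreviation: GI50, concentration required for 50% inhibition of growth.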 Active and inactive are the calls of the source. No stated cut-off is given here; in the data, active = GI50 up to about 1.1 µM and inactive = higher.

Tests used:
Experiment in all cases: growth of human tumour cells (NCI), 48 h
COLO 205 = test system: COLO 205
NCI-H23 = test system: NCI-H23
SNB-78 = test system: SNB-78
UACC-62 = test system: UACC-62
SF-295 = test system: SF-295
SR = test system: SR
OVCAR-8 = test system: OVCAR-8
SK-OV-3 = test system: SK-OV-3
SNB-19 = test system: SNB-19
OVCAR-5 = test system: OVCAR-5
K562 = test system: K562
SK-MEL-2 = test system: SK-MEL-2
SN12C = test system: SN12C
NCI-H460 = test system: NCI-H460
HCT-15 = test system: HCT-15
HCC 2998 = test system: HCC 2998
U-251 = test system: U-251
HOP-92 = test system: HOP-92
DLD-1 = test system: DLD-1
SK-MEL-28 = test system: SK-MEL-28
CCRF-CEM = test system: CCRF-CEM
Malme-3M = test system: Malme-3M
SF-268 = test system: SF-268
NCI-H226 = test system: NCI-H226
LXFL 529 = test system: LXFL 529
DMS-114 = test system: DMS-114
786-0 = test system: 786-0
CAKI-1 = test system: CAKI-1
UO-31 = test system: UO-31
EKVX = test system: EKVX
OVCAR-4 = test system: OVCAR-4
HT-29 = test system: HT-29
HOP-62 = test system: HOP-62
SF-539 = test system: SF-539
NCI-H522 = test system: NCI-H522
M19-MEL = test system: M19-MEL
SK-MEL-5 = test system: SK-MEL-5
KM12 = test system: KM12
OVCAR-3 = test system: OVCAR-3
UACC-257 = test system: UACC-257
HCT-116 = test system: HCT-116
SW-620 = test system: SW-620
ACHN = test system: ACHN
LOX IMVI = test system: LOX IMVI
RPMI-8226 = test system: RPMI-8226
IGROV-1 = test system: IGROV-1
A498 = test system: A498
MOLT-4 = test system: MOLT-4
RXF 393 = test system: RXF 393
A549 = test system: A549
M14 = test system: M14
TK-10 = test system: TK-10
SNB-75 = test system: SNB-75
DMS-273 = test system: DMS-273
HL-60 = test system: HL-60
KM-20L2 = test system: KM-20L2

## N#Cc1cc([N+](=O)[O-])ccc1NC(=O)/C(=N/N)C(C(=O)c1ccc(Cl)c(Cl)c1)C1OC(=O)c2ccccc21 (centres undefined)
COLO 205
  GI50: > 100 µM (inactive)
NCI-H23
  GI50: 25.1 µM (inactive)
SNB-78
  GI50: 75 µM (inactive)
UACC-62
  GI50: 31 µM (inactive)
SF-295
  GI50: 26.4 µM (inactive)
SR
  GI50: 54.2 µM (inactive)
OVCAR-8
  GI50: 28.1 µM (inactive)
SK-OV-3
  GI50: > 100 µM (inactive)
SNB-19
  GI50: 69.3 µM (inactive)
OVCAR-5
  GI50: 47.2 µM (inactive)
K562
  GI50: 24.3 µM (inactive)
SK-MEL-2
  GI50: 72.3 µM (inactive)
SN12C
  GI50: 90.8 µM (inactive)
NCI-H460
  GI50: 35.8 µM (inactive)
HCT-15
  GI50: 42.2 µM
HCC 2998
  GI50: 65.9 µM (inactive)
U-251
  GI50: 42.9 µM (inactive)
HOP-92
  GI50: 8.81 µM (inactive)
DLD-1
  GI50: 35 µM (inactive)
SK-MEL-28
  GI50: 35.6 µM (inactive)
CCRF-CEM
  GI50: 38.9 µM (inactive)
Malme-3M
  GI50: > 100 µM (inactive)
SF-268
  GI50: 59.8 µM (inactive)
NCI-H226
  GI50: 16.3 µM (inactive)
LXFL 529
  GI50: 43 µM (inactive)
DMS-114
  GI50: 28.4 µM (inactive)
786-0
  GI50: 59.3 µM (inactive)
CAKI-1
  GI50: 38.1 µM (inactive)
UO-31
  GI50: 49.9 µM (inactive)
EKVX
  GI50: 45 µM (inactive)
OVCAR-4
  GI50: 30.8 µM (inactive)
HT-29
  GI50: 81.3 µM (inactive)
HOP-62
  GI50: 54.6 µM (inactive)
SF-539
  GI50: 67.5 µM (inactive)
NCI-H522
  GI50: 26.1 µM (inactive)
M19-MEL
  GI50: 26.9 µM (inactive)
SK-MEL-5
  GI50: 63.7 µM (inactive)
KM12
  GI50: 58.1 µM (inactive)
OVCAR-3
  GI50: 90.8 µM (inactive)
UACC-257
  GI50: 84.7 µM (inactive)
HCT-116
  GI50: 39.1 µM (inactive)
SW-620
  GI50: 95.7 µM (inactive)
ACHN
  GI50: 36.6 µM (inactive)
LOX IMVI
  GI50: 21.7 µM (inactive)
RPMI-8226
  GI50: 46.1 µM (inactive)
IGROV-1
  GI50: > 100 µM (inactive)
A498
  GI50: 29.4 µM (inactive)
MOLT-4
  GI50: 36.8 µM (inactive)
RXF 393
  GI50: 19.5 µM (inactive)
A549
  GI50: 23.7 µM (inactive)

## c1ccc(Nc2nnc(CSc3nc(-c4ccccc4)c(-c4ccccc4)[nH]3)s2)cc1
COLO 205
  GI50: 12.3 µM (inactive)
NCI-H23
  GI50: 21.3 µM (inactive)
SNB-78
  GI50: 30.1 µM (inactive)
M14
  GI50: 14.7 µM (inactive)
SF-295
  GI50: 18.6 µM (inactive)
SR
  GI50: 20.6 µM (inactive)
OVCAR-8
  GI50: 23 µM (inactive)
SK-OV-3
  GI50: 22.8 µM (inactive)
OVCAR-5
  GI50: 21.3 µM (inactive)
SK-MEL-2
  GI50: 19 µM (inactive)
SN12C
  GI50: 17.1 µM (inactive)
NCI-H460
  GI50: 12.4 µM (inactive)
HCT-15
  GI50: 18.1 µM
U-251
  GI50: 13.7 µM (inactive)
HOP-92
  GI50: 11.1 µM (inactive)
DLD-1
  GI50: 53.8 µM (inactive)
SK-MEL-28
  GI50: 24.2 µM (inactive)
CCRF-CEM
  GI50: 15.5 µM (inactive)
Malme-3M
  GI50: 19.2 µM (inactive)
SF-268
  GI50: 24.4 µM (inactive)
NCI-H226
  GI50: 14.9 µM (inactive)
LXFL 529
  GI50: 20.1 µM (inactive)
DMS-114
  GI50: 27.5 µM (inactive)
786-0
  GI50: 18.2 µM (inactive)
UO-31
  GI50: 13.3 µM (inactive)
EKVX
  GI50: 19.4 µM (inactive)
TK-10
  GI50: 26.1 µM (inactive)
OVCAR-4
  GI50: 27 µM (inactive)
SNB-75
  GI50: 44.4 µM (inactive)
HT-29
  GI50: 15.2 µM (inactive)
HOP-62
  GI50: 21.1 µM (inactive)
SF-539
  GI50: 26.4 µM (inactive)
NCI-H522
  GI50: 17.2 µM (inactive)
M19-MEL
  GI50: 15.3 µM (inactive)
SK-MEL-5
  GI50: 15.2 µM (inactive)
KM12
  GI50: 21.1 µM (inactive)
OVCAR-3
  GI50: 10.5 µM (inactive)
UACC-257
  GI50: 20.5 µM (inactive)
HCT-116
  GI50: 17.2 µM (inactive)
ACHN
  GI50: 26.3 µM (inactive)
LOX IMVI
  GI50: 17 µM (inactive)
RPMI-8226
  GI50: 11.5 µM (inactive)
IGROV-1
  GI50: 21.3 µM (inactive)
DMS-273
  GI50: 16.8 µM (inactive)
A498
  GI50: 26.5 µM (inactive)
MOLT-4
  GI50: 10.1 µM (inactive)
HL-60
  GI50: 13.2 µM (inactive)
KM-20L2
  GI50: 26.7 µM (inactive)
A549
  GI50: 28.4 µM (inactive)
